Molecular target: T1, human ferroportin (Homo sapiens, UniProt Q9NP59)
T1 construct: luciferase reporter (read with the Nano-Glo Luciferase Assay System); expressed in transfected cells; host or cells: CHO cells, stably transfected, expression induced with doxycycline
T1 sequence (Q9NP59 1-571): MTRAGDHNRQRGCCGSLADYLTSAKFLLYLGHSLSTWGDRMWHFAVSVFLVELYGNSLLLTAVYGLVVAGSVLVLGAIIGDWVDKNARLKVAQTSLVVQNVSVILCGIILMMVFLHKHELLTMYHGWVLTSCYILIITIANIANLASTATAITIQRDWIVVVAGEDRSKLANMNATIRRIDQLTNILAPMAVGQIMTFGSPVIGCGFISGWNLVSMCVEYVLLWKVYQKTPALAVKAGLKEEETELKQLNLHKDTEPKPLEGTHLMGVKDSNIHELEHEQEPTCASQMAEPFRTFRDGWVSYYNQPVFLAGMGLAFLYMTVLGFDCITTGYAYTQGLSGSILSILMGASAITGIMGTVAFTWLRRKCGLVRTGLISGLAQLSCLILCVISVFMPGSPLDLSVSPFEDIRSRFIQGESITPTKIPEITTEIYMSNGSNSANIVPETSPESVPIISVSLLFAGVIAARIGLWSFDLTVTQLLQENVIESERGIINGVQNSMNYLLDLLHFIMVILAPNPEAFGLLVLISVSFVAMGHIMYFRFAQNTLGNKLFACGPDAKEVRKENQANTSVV
Test: Biological in-vitro ferroportin internalization assay (luciferase reporter)
Type: cell-based
Conditions: average pEC50; stably-transfected CHO cell line expressing human ferroportin tagged to a luciferase reporter; 6 h incubation with test compound
Method in brief: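 Stably transfected CHO cells expressing luciferase-tagged human ferroportin, plated 24 h with ferric ammonium citrate and induced with doxycycline for 24 h. Compounds incubated 6 h, then luciferase activity measured by Nano-Glo; average pEC50 reported.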

Row | pEC50 | Structure (SMILES)
1 | 8 | COc1cc2c(cn1)N(C(=O)CN(C)c1nc(-c3cc(OCCO)ccn3)nc3c1CCC3)CC2 [Compound 375, 2-({2-[4-(2-hydroxyethoxy)pyridin-2-yl]-5H,6H,7H-cyclopenta[d]pyrimidin-4-yl}(methyl)amino)-1-{5-methoxy-1H,2H,3H-pyrrolo[2,3-c]pyridin-1-yl}ethan-1-one]
2 | 8 | CN(CC(=O)NC1(C)CCC1)c1nc(-c2cc(OCCO)ccn2)nc2c1CCC2 [Compound 376, 2-({2-[4-(2-hydroxyethoxy)pyridin-2-yl]-5H,6H,7H-cyclopenta[d]pyrimidin-4-yl}(methyl)amino)-N-(1-methylcyclobutyl)acetamide]
3 | 7.8 | C[C@@H](O)COc1ccnc(-c2nc3c(c(N(C)CC(=O)NC4(C)CCC4)n2)CCC3)c1 [Compound 377, 2-[(2-{4-[(2R)-2-hydroxypropoxy]pyridin-2-yl}-5H,6H,7H-cyclopenta[d]pyrimidin-4-yl)(methyl)amino]-N-(1-methylcyclobutyl)acetamide]
4 | 8 | C[C@H](O)COc1ccnc(-c2nc3c(c(N(C)CC(=O)NC4(C)CCC4)n2)CCC3)c1 [Compound 378, 2-[(2-{4-[(2S)-2-hydroxypropoxy]pyridin-2-yl}-5H,6H,7H-cyclopenta[d]pyrimidin-4-yl)(methyl)amino]-N-(1-methylcyclobutyl)acetamide]
5 | 7.2 | COc1ccnc(-c2nc3c(c(N(C)Cc4nc(Cc5ccccc5)co4)n2)CCC3)c1 [Compound 379, N-[(4-benzyl-1,3-oxazol-2-yl)methyl]-2-(4-methoxypyridin-2-yl)-N-methyl-5H,6H,7H-cyclopenta[d]pyrimidin-4-aminemide]
6 | 7.8 | CN(CC(=O)NC12CC(C1)C2)c1nc(-c2cc(OCC(C)(C)O)ccn2)nc2c1CCC2 [Compound 383, N-{bicyclo[1.1.1]pentan-1-yl}-2-({2-[4-(2-hydroxy-2-methylpropoxy)pyridin-2-yl]-5H,6H,7H-cyclopenta[d]pyrimidin-4-yl}(methyl)amino)acetamide]
7 | 8.2 | C[C@@H](CO)Oc1ccnc(-c2nc3c(c(N(C)CC(=O)NC(C)(C)C)n2)CCC3)c1 [Compound 385, N-tert-butyl-2-{[2-(4-{[(2S)-1-hydroxypropan-2-yl]oxy}pyridin-2-yl)-5H,6H,7H-cyclopenta[d]pyrimidin-4-yl](methyl)amino}acetamide]
8 | 8.2 | CN(CC(=O)NC(C)(C)C)c1nc(-c2cc(OCC3(O)CCC3)ccn2)nc2c1CCC2 [Compound 388, N-tert-butyl-2-[(2-{4-[(1-hydroxycyclobutyl)methoxy]pyridin-2-yl}-5H,6H,7H-cyclopenta[d]pyrimidin-4-yl)(methyl)amino]acetamide]
9 | 7.9 | CC(C)NC(=O)CN(C)c1nc(-c2cc(OCC(C)(C)O)ccn2)nc2c1CCC2 [Compound 389, 2-({2-[4-(2-hydroxy-2-methylpropoxy)pyridin-2-yl]-5H,6H,7H-cyclopenta[d]pyrimidin-4-yl}(methyl)amino)-N-(propan-2-yl)acetamide]
10 | 7.8 | CCNC(=O)CN(C)c1nc(-c2cc(OCC(C)(C)O)ccn2)nc2c1CCC2 [Compound 390, N-ethyl-2-({2-[4-(2-hydroxy-2-methylpropoxy)pyridin-2-yl]-5H,6H,7H-cyclopenta[d]pyrimidin-4-yl}(methyl)amino)acetamide]
11 | 7.7 | CN(CC(=O)N1CCC(F)(F)CC1)c1nc(-c2cc(OCC(C)(C)O)ccn2)nc2c1CCC2 [Compound 391, 1-(4,4-difluoropiperidin-1-yl)-2-({2-[4-(2-hydroxy-2-methylpropoxy)pyridin-2-yl]-5H,6H,7H-cyclopenta[d]pyrimidin-4-yl}(methyl)amino)ethan-1-one]
12 | 8.3 | CCC(C)(CC)NC(=O)CN(C)c1nc(-c2cc(OCCO)ccn2)nc2c1CCC2 [Compound 392, 2-({2-[4-(2-hydroxyethoxy)pyridin-2-yl]-5H,6H,7H-cyclopenta[d]pyrimidin-4-yl}(methyl)amino)-N-(3-methylpentan-3-yl)acetamide]
13 | 8.5 | CN(CC(=O)NC(C)(C)C)c1nc(-c2cc(OCC3(O)CCCCC3)ccn2)nc2c1CCC2 [Compound 396, N-tert-butyl-2-[(2-{4-[(1-hydroxycyclohexyl)methoxy]pyridin-2-yl}-5H,6H,7H-cyclopenta[d]pyrimidin-4-yl)(methyl)amino]acetamide]
14 | 7.6 | CN(CC(=O)N[C@@H]1CCC[C@@H]1O)c1nc(-c2cc(OCC(C)(C)O)ccn2)nc2c1CCC2 [Compound 397, 2-({2-[4-(2-hydroxy-2-methylpropoxy)pyridin-2-yl]-5H,6H,7H-cyclopenta[d]pyrimidin-4-yl}(methyl)amino)-N-[(1R,2S)-2-hydroxycyclopentyl]acetamide]
15 | 8.1 | CN(CC(=O)NC1CC1)c1nc(-c2cc(OCC(C)(C)O)ccn2)nc2c1CCC2 [Compound 398, N-cyclopropyl-2-({2-[4-(2-hydroxy-2-methylpropoxy)pyridin-2-yl]-5H,6H,7H-cyclopenta[d]pyrimidin-4-yl}(methyl)amino)acetamide]
16 | 8.2 | CCN(CC)CCOc1ccnc(-c2nc3c(c(N(C)CC(=O)NC(C)(C)C)n2)CCC3)c1 [Compound 400, N-tert-butyl-2-[(2-{4-[2-(diethylamino)ethoxy]pyridin-2-yl}-5H,6H,7H-cyclopenta[d]pyrimidin-4-yl)(methyl)amino]acetamide]

The next lines start with the compound.

Row | Structure (SMILES) | pEC50
17 | COc1ccnc(-c2nc3c(c(N(C)Cc4nc(-c5ccccc5)co4)n2)CCC3)c1 [Compound 380, 2-(4-methoxypyridin-2-yl)-N-methyl-N-[(4-phenyl-1,3-oxazol-2-yl)methyl]-5H,6H,7H-cyclopenta[d]pyrimidin-4-amine] | 6.6
18 | CN(CC(=O)NC(C)(C)C)c1nc(-c2cc(OCC3(O)CCCC3)ccn2)nc2c1CCC2 [Compound 381, N-tert-butyl-2-[(2-{4-[(1-hydroxycyclopentyl)methoxy]pyridin-2-yl}-5H,6H,7H-cyclopenta[d]pyrimidin-4-yl)(methyl)amino]acetamide] | 8.3
19 | CN(CC(=O)N1CCCCC1)c1nc(-c2cc(OCC(C)(C)O)ccn2)nc2c1CCC2 [Compound 382, 2-({2-[4-(2-hydroxy-2-methylpropoxy)pyridin-2-yl]-5H,6H,7H-cyclopenta[d]pyrimidin-4-yl}(methyl)amino)-1-(piperidin-1-yl)ethan-1-oneide] | 7.8
20 | C[C@H](CO)Oc1ccnc(-c2nc3c(c(N(C)CC(=O)NC(C)(C)C)n2)CCC3)c1 [Compound 384, N-tert-butyl-2-{[2-(4-{[(2R)-1-hydroxypropan-2-yl]oxy}pyridin-2-yl)-5H,6H,7H-cyclopenta[d]pyrimidin-4-yl](methyl)amino}acetamide] | 8.1
21 | CC(C)[C@H](O)COc1ccnc(-c2nc3c(c(N(C)CC(=O)NC(C)(C)C)n2)CCC3)c1 [Compound 386, N-tert-butyl-2-[(2-{4-[(2S)-2-hydroxy-3-methylbutoxy]pyridin-2-yl}-5H,6H,7H-cyclopenta[d]pyrimidin-4-yl)(methyl)amino]acetamide] | 8.4
22 | CC(C)[C@@H](O)COc1ccnc(-c2nc3c(c(N(C)CC(=O)NC(C)(C)C)n2)CCC3)c1 [Compound 387, N-tert-butyl-2-[(2-{4-[(2R)-2-hydroxy-3-methylbutoxy]pyridin-2-yl}-5H,6H,7H-cyclopenta[d]pyrimidin-4-yl)(methyl)amino]acetamide] | 8.2
23 | CC[C@@H](O)COc1ccnc(-c2nc3c(c(N(C)CC(=O)NC(C)(C)C)n2)CCC3)c1 [Compound 393, N-tert-butyl-2-[(2-{4-[(2R)-2-hydroxybutoxy]pyridin-2-yl}-5H,6H,7H-cyclopenta[d]pyrimidin-4-yl)(methyl)amino]acetamide] | 8.1
24 | CC[C@H](O)COc1ccnc(-c2nc3c(c(N(C)CC(=O)NC(C)(C)C)n2)CCC3)c1 [Compound 394, (S)—N-(tert-butyl)-2-((2-(4-(2-hydroxybutoxy)pyridin-2-yl)-6,7-dihydro-5H-cyclopenta[d]pyrimidin-4-yl)(methyl)amino)acetamide] | 8.3
25 | CCC(O)(CC)COc1ccnc(-c2nc3c(c(N(C)CC(=O)NC(C)(C)C)n2)CCC3)c1 [Compound 395, N-tert-butyl-2-({2-[4-(2-ethyl-2-hydroxybutoxy)pyridin-2-yl]-5H,6H,7H-cyclopenta[d]pyrimidin-4-yl}(methyl)amino)acetamide] | 8.4
26 | CN(CC(=O)N1CCOCC1)c1nc(-c2cc(OCC(C)(C)O)ccn2)nc2c1CCC2 [Compound 399, 2-({2-[4-(2-hydroxy-2-methylpropoxy)pyridin-2-yl]-5H,6H,7H-cyclopenta[d]pyrimidin-4-yl}(methyl)amino)-1-(morpholin-4-yl)ethan-1-oneide] | 7.5
27 | CN(CC(=O)NC(C)(C)C)c1nc(-c2cc(OCCN3CCCC3)ccn2)nc2c1CCC2 [Compound 401, N-tert-butyl-2-[methyl(2-{4-[2-(pyrrolidin-1-yl)ethoxy]pyridin-2-yl}-5H,6H,7H-cyclopenta[d]pyrimidin-4-yl)amino]acetamide] | 8.3
